Laboratory results from article PMC6380545, “Myoinhibitory peptide signaling modulates aversive gustatory learning in Caenorhabditis elegans” (PLoS Genetics, 2019).
Where “and” joins values, the source holds several entries; their conditions need not be identical. Equal values may be shown once. Starred links: 1 amine or outer side, 2 acyl side, 3 side chain; linkers in the order of their positions; H or OH if unused. Positions of bridges follow the written chain, without caps; N, C: chain ends. Non-standard residues stand in square brackets, D forms with d. Residues, ends and D or L forms follow the SMILES beside them. Chains are numbered I, II in the order given. No end group written: not given here. Actinocin(9to1) = Cc1c2oc3c(C)ccc(C(=O)[*:1])c3nc-2c(C(=O)[*:2])c(N)c1=O; NMeV = CN[C@H](C(=O)O)C(C)C; Sar = CNCC(=O)O

Experiments:
C. elegans [1] = test: Salt avoidance learning (taste associative learning, 6 h conditioning with NaCl without food); type: in vivo; settings: wild-type, blocker in conditioning plates, cycloheximide 300 μg/mL, actinomycin D 50 μg/mL, 100 mM NaCl without food
From the text: We next explored the behavior of sprr-2 mutants in a second established type of gustatory associative learning that depends on food availability and external salt concentration, generally referred to as taste associative learning. […] In contrast, they are averted by NaCl concentrations at which they were starved, a behavior that is called salt avoidance learning (Fig 5A, see Methods). To test taste associative learning of sprr-2 mutants, we fed or starved animals, respectively, for six hours on conditioning plates with 25 mM NaCl (low salt) or 100 mM NaCl (high salt). […] This salt avoidance learning defect could be rescued by reintroducing wild-type copies of sprr-2 under control of its endogenous promoter (Fig 5C). […]
(A) Overview of taste associative learning assays. […] The CI is calculated from the number of worms that migrated toward the lower and upper parts of the gradient. […]
Worms were washed off the cultivation plates with chemotaxis buffer (25 mM KH2PO4/K2HPO4 pH 6.6, 1 mM MgSO4, 1 mM CaCl2, 50 mM NaCl) and transferred to unseeded (salt avoidance learning) or seeded NGM conditioning plates with 100 mM NaCl. […] 30 to 150 worms were placed at the origin and allowed to move freely for 45 minutes after which the CI was calculated as N(higher)—N(lower) / N(all)—N(origin) where N(higher) or N(lower) is the number of animals within a 2-cm radius from the centre of the blocks. […]

C. elegans [2] = test: Taste associative learning, 6 h conditioning with NaCl in the presence of food; type: in vivo; settings: for CI: food (+): 6 hours conditioning on NGM plates with 100 mM NaCl in the presence of bacterial food, with the drug, gradient chemotaxis assay, each row is one single assay (replicate), Figure S5A; for learning behavior after conditioning with 100 mM NaCl in the presence of food: wild-type, blocker in conditioning plates, cycloheximide 300 μg/mL, actinomycin D 50 μg/mL, n ≥ 8
Protocol: (A) Overview of taste associative learning assays. Synchronized young adult C. elegans are conditioned for six hours on NaCl-containing plates with or without bacterial food. Salt chemotaxis behavior of worms is then tested on NaCl concentration gradients. The CI is calculated from the number of worms that migrated toward the lower and upper parts of the gradient. Worms chemotax to the salt concentrations at which they were fed, but avoid salt concentrations at which they were starved. […] (C) Expression of sprr-2 under its promoter sequence [sprr-2p::sprr-2] rescues the salt avoidance learning defect of sprr-2 mutants. (D) Expression of mip-1 under control of its endogenous promoter sequence [mip-1p::mip-1] rescues the salt avoidance learning defect of mip-1 mutants. (E) A mip-1; sprr-2 double mutant has no additive learning defect. (F) Blocking translation (cycloheximide) or transcription (actinomycin D) during conditioning impairs salt avoidance learning in wild-type animals. (G) Salt avoidance learning of mutants for transcription factors and regulators linked to learning and memory. […] For (B-H), boxplots indicate 25th (lower boundary), 50th (line), and 75th (upper boundary) percentiles. Whiskers show minimum and maximum values. Individual CIs, blue dots. Outliers, black dots. Statistical comparisons by one-way ANOVA and Tukey post-hoc test (n ≥ 6). *p<0.05; **p<0.005; ***p<0.001; n.s., not significant.
Worms were washed off the cultivation plates with chemotaxis buffer (25 mM KH2PO4/K2HPO4 pH 6.6, 1 mM MgSO4, 1 mM CaCl2, 50 mM NaCl) and transferred to unseeded (salt avoidance learning) or seeded NGM conditioning plates with 100 mM NaCl. After 6 hours, animals were washed off and rinsed once with chemotaxis buffer before testing chemotaxis towards NaCl on salt concentration gradients. Salt concentration gradients consisted of a thin layer of 50 mM NaCl 2% agar solution in chemotaxis buffer (background agar, 10 mL was poured into 8.5 cm diameter plates). Additionally, 2% agar in chemotaxis buffer solutions supplemented without 0 mM (lower side) or with 150 mM NaCl (higher side) were prepared by pouring 10 mL agar solution into 35 mm diameter plates. Cylindrical blocks with the diameter of a 15 mL falcon tube were excised from either solution and applied on the background agar 3 cm off centre in opposite directions. Salt concentration gradients were subsequently placed at 20°C for 18 hours before removing the agar chunks prior to use. 30 to 150 worms were placed at the origin and allowed to move freely for 45 minutes after which the CI was calculated as N(higher)—N(lower) / N(all)—N(origin) where N(higher) or N(lower) is the number of animals within a 2-cm radius from the centre of the blocks. Animals within a 1-cm radius from the origin were excluded from the assay. […]

SPRR-2 = molecular target: T1, SPRR-2 (Caenorhabditis elegans, UniProt Q93704); test: Ca2+ luminescence (aequorin) GPCR activation assay, CHO cells expressing SPRR-2; type: cell-based, C. elegans; settings: CHO cells expressing SPRR-2, Gα16 and aequorin; 0.1 nM to 100 μM; n ≥ 4; read-out: EC50 values (95% CI) for activation of SPRR-2
T1 construct: host or cells: CHO-WTA11 cells (CHO stably expressing aequorin and Galpha16), transiently transfected with sprr-2/pcDNA3.1
T1 sequence (Q93704 1-451): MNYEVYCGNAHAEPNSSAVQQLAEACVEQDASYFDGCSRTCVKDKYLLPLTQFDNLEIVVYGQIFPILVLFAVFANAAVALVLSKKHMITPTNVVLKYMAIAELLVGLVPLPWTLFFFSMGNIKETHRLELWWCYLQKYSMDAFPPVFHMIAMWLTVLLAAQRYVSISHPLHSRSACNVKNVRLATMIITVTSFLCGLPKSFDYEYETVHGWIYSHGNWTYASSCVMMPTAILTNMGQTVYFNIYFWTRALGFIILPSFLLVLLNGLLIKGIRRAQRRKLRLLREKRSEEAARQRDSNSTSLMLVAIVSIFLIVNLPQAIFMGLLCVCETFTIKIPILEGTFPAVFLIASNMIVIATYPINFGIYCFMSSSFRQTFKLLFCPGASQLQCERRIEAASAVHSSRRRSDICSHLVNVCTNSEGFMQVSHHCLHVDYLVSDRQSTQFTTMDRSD
From the text: Fig 2 MIP-1 neuropeptides activate the MIP receptor ortholog SPRR-2. (A) Ca^2+ luminescence assay for measuring GPCR activation. SPRR-2 is expressed in CHO cells that stably co-express the promiscuous Gα16 protein, which couples the receptor’s activation to the Ca^2+ pathway. Intracellular Ca^2+ levels are monitored by the luminescent Ca^2+ indicator aequorin. (B) Domain structure of the C. elegans NLP-38 peptide precursor, henceforward named MIP-1. Gene models predict that the mip-1 gene encodes two protein isoforms (Wormbase WS261), MIP-1A and MIP-1B, which yield five putative MIP-1 peptides. Predicted proprotein convertase sites are indicated in red. Residues belonging to the W-X5-8-Wamide motif, typical of protostomian MIPs, are indicated in brown. (C) MIP-1 peptides dose-dependently activate SPRR-2. Ca^2+responses of CHO cells expressing SPRR-2 are shown relative (%) to the highest value (100% activation) after normalization to the total Ca^2+ response. […] Error bars show SEM (n ≥ 4).
The C. elegans ortholog SPRR-2 of the insect MIP receptor is an orphan GPCR, meaning that its ligand(s) is unknown. To identify its ligand(s), we used a calcium (Ca^2+)-based reporter assay for GPCR activation wherein SPRR-2 is expressed in Chinese Hamster Ovary (CHO) cells (Fig 2A). We challenged these receptor-expressing cells with a synthetic library of ~350 C. elegans neuropeptides. […] These peptides (NLP-38-1 to 5) all have a C-terminal glycine residue (G) indicative of post-translational modification into an amide (-NH2) group in the mature peptides. In addition, these peptides display the C-terminal sequence W-X5-8-Wamide (Fig 2B), which is typical for MIP neuropeptides in other protostomian species. Because of its relationship to protostomian MIP neuropeptide precursors, we refer to the NLP-38 precursor from here onwards as "MIP-1".
The GPCR activation assay was performed as previously described. Briefly, CHO cells stably expressing the luminescent Ca^2+ indicator aequorin and the promiscuous Gα16 protein (CHO-WTA11 cells, PerkinElmer) were transiently transfected with sprr-2/pcDNA3.1, sprr-1/pcDNA3.1, sprr-3/pcDNA3.1, or empty pcDNA3.1 vector. […] After loading, the transfected cells were added at a density of 25,000 cells/well, and luminescence was measured for 30 s at a wavelength of 469 nm. After 30 s, 0.1% triton X-100 (Merck) was added to lyse the cells, resulting in a maximal Ca^2+ response that was measured for 10 s. […]
All behavioral experiments were performed at least in duplicate on at least two independent days. Total size number is indicated in figure legends by N. Statistical Significance was determined when p < 0.05 as indicated in the figure legends. […]

Compound | avoidance of high salt concentrations experienced during starvation (salt avoidance learning) (C. elegans [1]) | CI (C. elegans [2]) | learning behavior after conditioning with 100 mM NaCl in the presence of food (C. elegans [2]) | EC50 (SPRR-2)
Cc1c2oc3c(C)ccc(C(=O)N[C@@H]4C(=O)N[C@H](C(C)C)C(=O)N5CCC[C@H]5C(=O)N(C)CC(=O)N(C)[C@@H](C(C)C)C(=O)O[C@@H]4C)c3nc-2c(C(=O)N[C@@H]2C(=O)N[C@H](C(C)C)C(=O)N3CCC[C@H]3C(=O)N(C)CC(=O)N(C)[C@@H](C(C)C)C(=O)O[C@@H]2C)c(N)c1=O [actinomycin D] (I: T[dV]P[Sar][NMeV] / II: T[dV]P[Sar][NMeV]; ester I:1-I:C, II:1-II:C; linker I:N-II:N via Actinocin(9to1)) | significantly weakened | 0.5595 and 0.6629 and 0.7488 and 0.5052 and 0.5581 and 0.5185 | does not impair | –
C[C@@H]1C[C@@H]([C@H](O)CC2CC(=O)NC(=O)C2)C(=O)[C@@H](C)C1 [cycloheximide] | significantly weakened | 0.19 and 0.26 and 0.65 and 0.48 and 0.38 and 0.54 and 0.7415 and 0.7427 | does not impair | –
ASDDRVLGWNKAHGLW-NH2 [MIP-1-4] | – | – | – | 8.32 nM
SPAQWQRANGLW-NH2 [MIP-1-3] | – | – | – | 16.1 nM
TPQNWNKLNSLW-NH2 [MIP-1-2] | – | – | – | 14.2 nM
VLGWNKAHGLW-NH2 [MIP-1-1] | – | – | – | 7.5 nM
